# Where a name gives a salt, the structure may show the parent alone.
# What was measured:
# [1] = test system: HCT116; assay: efficacy (maximum % inhibition of viability vs DMSO); higher = more cytotoxic; conditions: 72 h
# In short: (§1)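 After seeding at 250 cells per well in 1536-well plates, HCT116 cells were given 5 h to attach. CellTiter-Glo luminescence, scaled to 0% for vehicle and -100% for positive control, was pattern-corrected. Fitting with a four-parameter Hill model produced IC50 and maximal efficacy.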
# [2] = test system: HCT116; conditions: 72 h
# In short: as §1
Compound,IC50 cell viability ([2]; ICRF193 0 nM) [µM],IC50 cell viability ([2]; ICRF193 200 nM) [µM],efficacy ([1]; ICRF193 0 nM) [%],efficacy ([1]; ICRF193 200 nM) [%]
CC(=O)Oc1cc(C)c(OC(C)=O)c2ccccc12 [Acetomenaphthone],44.7,50.1,107,108
CCCC1CCCCN1 (racemic) [dl-Coniine],> 45.8,4.11,,66.1
Oc1c(Cl)cc(Cl)c2cccnc12 [Chloroxine],29.1,29.1,103,112
CC[C@]1(O)C[C@@H]2CN(CCc3c([nH]c4ccccc34)[C@@](C(=O)OC)(c3cc4c(cc3OC)N(C)[C@H]3[C@@](O)(C(=O)OC)[C@H](OC(C)=O)[C@]5(CC)C=CCN6CC[C@]43[C@@H]65)C2)C1 [Vinblastine sulfate],0.082,0.058,75.8,82.2
C[C@H]1C[C@H]2[C@@H]3CCC4=CC(=O)C=C[C@]4(C)[C@@]3(Cl)[C@@H](O)C[C@]2(C)[C@@]1(O)C(=O)CO [Beclomethasone],23.1,20.6,84.6,86.6
COc1cc(C(C)=O)ccc1OCCCN1CCC(c2noc3cc(F)ccc23)CC1 [Iloperidone],> 45.8,23.1,,49.6
Oc1c(Cl)cc(Cl)c(Cl)c1Cc1c(O)c(Cl)cc(Cl)c1Cl [Hexachlorophene],2.59,6.51,82.5,45.6
C#CCC(Cc1cnc2nc(N)nc(N)c2n1)c1ccc(C(=O)N[C@@H](CCC(=O)O)C(=O)O)cc1 (some centres undefined) [Pralatrexate],0.0082,0.00651,84.8,85.6
C[C@@H](O[C@H]1OCCN(Cc2n[nH]c(=O)[nH]2)[C@H]1c1ccc(F)cc1)c1cc(C(F)(F)F)cc(C(F)(F)F)c1 [Aprepitant],23.1,18.3,113,102
COC(=O)[C@H](c1ccccc1Cl)N1CCc2sccc2C1 [Clopidogrel bisulfate],18.3,23.1,67.2,76.8
Cc1cc(C#N)cc(C)c1Oc1nc(Nc2ccc(C#N)cc2)nc(N)c1Br [Etravirine],29.1,29.1,49,54.9
CN(Cc1cnc2nc(N)nc(N)c2n1)c1ccc(C(=O)N[C@@H](CCC(=O)O)C(=O)O)cc1 [Methotrexate],0.146,0.146,91.8,93.9
O=C1Nc2ccc(Cl)cc2[C@@](C#CC2CC2)(C(F)(F)F)O1 [Efavirenz],20.6,25.9,56.7,44.6
N=C(NCCCCCCNC(=N)NC(=N)Nc1ccc(Cl)cc1)NC(=N)Nc1ccc(Cl)cc1 [Chlorhexidine],18.3,18.3,104,103
CCN(CC)c1ccc(C(=C2C=CC(=[N+](CC)CC)C=C2)c2cc(S(=O)(=O)O)ccc2S(=O)(=O)[O-])cc1 [Isosulfan blue],29.1,18.3,76.5,78.9
CCO/N=C(\C(=O)N[C@@H]1C(=O)N2C(C(=O)[O-])=C(Sc3nc(-c4cc[n+](C)cc4)cs3)CS[C@H]12)c1nsc(NP(=O)(O)O)n1 [TAK-599],25.9,29.1,57.6,76.4
COc1cccc2c1C(=O)c1c(O)c3c(c(O)c1C2=O)C[C@@](O)(C(C)=O)C[C@@H]3O[C@H]1C[C@H](N)[C@H](O)[C@H](C)O1 [Daunorubicin],0.461,0.0517,102,83.8
O=C(CCCN1CCC(O)(c2ccc(Br)cc2)CC1)c1ccc(F)cc1 [Bromperidol],18.3,20.6,44.8,55.1

Compound,IC50 cell viability ([2]; ICRF193 0 nM) [µM],IC50 cell viability ([2]; ICRF193 200 nM) [µM],efficacy ([1]; ICRF193 0 nM) [%],efficacy ([1]; ICRF193 200 nM) [%]
CCOc1ccc2nc3cc(N)ccc3c(N)c2c1 [Ethacridine lactate hydrate],18.3,29.1,54.4,50.6
Nc1ccn([C@@H]2O[C@H](CO)[C@@H](O)C2(F)F)c(=O)n1 [Gemcitabine],0.092,0.0461,53.5,56
O=c1c(-c2ccc(O)cc2)coc2cc(O)cc(O)c12 [Genistein],> 45.8,16.4,,42.9
O=C1NC2CCCCN2C12CCN(CCCN1c3ccccc3CCc3ccc(Cl)cc31)CC2 (centres undefined) [Mosapramine],20.6,23.1,125,129
COc1cc2ncnc(Nc3ccc(F)c(Cl)c3)c2cc1OCCCN1CCOCC1 [Gefitinib],20.6,29.1,86.4,98.2
COc1cc(NC(C)CCCN)c2ncccc2c1 (centres undefined) [Primaquine diphosphate],5.8,> 45.8,87.5,
C[C@H]1O[C@@H](O[C@H]2[C@@H](O)C[C@H](O[C@H]3[C@@H](O)C[C@H](O[C@H]4CC[C@@]5(C)[C@H](CC[C@@H]6[C@@H]5CC[C@]5(C)[C@@H](C7=CC(=O)OC7)CC[C@]65O)C4)O[C@@H]3C)O[C@@H]2C)C[C@H](O)[C@@H]1O [DIGITOXIN],0.0651,> 45.8,73.1,
CCCCCCCCCCCCCCCC[N+](C)(C)CCN(Cc1ccc(OC)cc1)c1ncccn1 [Thonzonium bromide],18.3,4.61,120,89.7
O=C(O)C1=C(CSc2nnnn2CS(=O)(=O)O)CS[C@@H]2[C@H](NC(=O)[C@H](O)c3ccccc3)C(=O)N12 [CEFONICID SODIUM],> 45.8,6.51,,85.2
Nc1nc(Cl)nc2c1ncn2[C@H]1C[C@H](O)[C@@H](CO)O1 [Cladribine],1.3,0.651,56.1,66.1
N#CC(c1ccc(Cl)cc1)c1c(Cl)cc(-n2ncc(=O)[nH]c2=O)cc1Cl (centres undefined) [Diclazuril],20.6,20.6,46.5,56.7
CN1CCN(CC/C=C2/c3ccccc3Sc3ccc(S(=O)(=O)N(C)C)cc32)CC1 [THIOTHIXENE],20.6,20.6,112,126
COc1cc([C@@H]2c3cc4c(cc3[C@@H](O[C@@H]3O[C@@H]5CO[C@@H](c6cccs6)O[C@H]5[C@H](O)[C@H]3O)[C@H]3COC(=O)[C@H]23)OCO4)cc(OC)c1O [Teniposide],2.31,1.83,92,103
CC1(C)CCC(C)(C)c2cc(NC(=O)c3ccc(C(=O)O)cc3)ccc21 [Tamibarotene],20.6,> 45.8,52.7,
O=C1CCc2cc(OCCCCc3nnnn3C3CCCCC3)ccc2N1 [Cilostazol],> 45.8,23.1,,46
C=C1/C(=C\C=C2/CCC[C@]3(C)[C@@H]([C@H](C)CCCC(O)(C(F)(F)F)C(F)(F)F)CC[C@@H]23)C[C@@H](O)C[C@@H]1O [Falecalcitriol],29.1,23.1,68.9,96.5
COC(=O)C1=C(C)NC(C)=C(C(=O)OC)C1c1ccccc1[N+](=O)[O-] [Nifedipine],23.1,23.1,94.7,90.5

# Now from value to compound, other results behind:
IC50 cell viability ([2]; ICRF193 0 nM) [µM],IC50 cell viability ([2]; ICRF193 200 nM) [µM],Compound,efficacy ([1]; ICRF193 0 nM) [%],efficacy ([1]; ICRF193 200 nM) [%]
20.6,23.1,Cn1cncc1[C@@](N)(c1ccc(Cl)cc1)c1ccc2c(c1)c(-c1cccc(Cl)c1)cc(=O)n2C [Tipifarnib],118,126
16.4,25.9,CN(C)CC/C=C1/c2ccccc2Sc2ccc(Cl)cc21 [Chlorprothixene],66.1,68.9
18.3,23.1,CC/C(=C(/CC)c1ccc(O)cc1)c1ccc(O)cc1 [Diethylstilbestrol],52.4,47.5
> 45.8,10.3,O=C(O)c1cccc(-c2noc(-c3ccccc3F)n2)c1 [PTC-124],,46.5
> 45.8,29.1,O=C1c2ccccc2C(=O)c2c1ccc(O)c2O [Alizarin],,47.6
23.1,18.3,CCCCN(CCCC)CC(O)c1cc(Cl)cc2c1-c1ccc(Cl)cc1/C2=C/c1ccc(Cl)cc1 (centres undefined) [Lumefantrine],120,113
16.4,> 45.8,CC1=C(C(=O)OCCN(Cc2ccccc2)c2ccccc2)C(c2cccc([N+](=O)[O-])c2)C(P2(=O)OCC(C)(C)CO2)=C(C)N1 (centres undefined) [Efonidipine hydrochloride monoethanolate],41.1,
29.1,20.6,Cc1c(O)cccc1C(=O)N[C@@H](CSc1ccccc1)[C@H](O)CN1C[C@H]2CCCC[C@H]2C[C@H]1C(=O)NC(C)(C)C [Nelfinavir mesylate],104,106
> 45.8,25.9,CCCCC1(COC(=O)CCC(=O)O)C(=O)N(c2ccccc2)N(c2ccccc2)C1=O [Suxibuzone],,58.2
23.1,16.4,C=CC(=O)Nc1cc(Nc2nccc(-c3cn(C)c4ccccc34)n2)c(OC)cc1N(C)CCN(C)C [Osimertinib mesylate],142,101
16.4,20.6,O=C(NC1CCN(CCCCC2(C(=O)NCC(F)(F)F)c3ccccc3-c3ccccc32)CC1)c1ccccc1-c1ccc(C(F)(F)F)cc1 [Lomitapide],117,115
16.4,18.3,CC(CN(C)C)CN1c2ccccc2Sc2ccc(C(F)(F)F)cc21 (centres undefined) [Trifluomeprazine 2-butenedioate],40.2,49.5
23.1,9.2,"Nc1c2ccccc2nc2ccccc12 [9-Aminoacridine, monohydrochloride, monohydrate]",103,90.6
18.3,23.1,C/C(=C(/OCCOc1ccc(Cl)cc1)c1ccc(Cl)cc1Cl)n1ccnc1 [Omoconazole],41.1,62.4
29.1,29.1,CC(C)C(=O)OCc1cccc(OC(=O)[C@@H]2N3C(=O)[C@@H](NC(=O)Cc4ccccc4)[C@H]3SC2(C)C)c1 [Tobicillin],122,103
5.8,5.17,CCOC(=O)Cn1cccc1-c1nc(-c2ccc(OC)cc2)c(-c2ccc(OC)cc2)s1 [Pamicogrel],89.1,86.7
23.1,20.6,COC(=O)C1=C(C)NC(C)=C(C(=O)OCCN(C)Cc2ccccc2)C1c1cccc([N+](=O)[O-])c1 (centres undefined) [Nicardipine],61.1,69.1
> 45.8,18.3,O=C(CCCN1CCC(n2c(=S)[nH]c3ccccc32)CC1)c1ccc(F)cc1 [Timiperone],,46.1
18.3,18.3,COC(=O)C1=C(C)NC(C)=C(C(=O)OCCN2CCN(C(c3ccccc3)c3ccccc3)CC2)C1c1cccc([N+](=O)[O-])c1 (centres undefined) [Manidipine],92,90.1
23.1,23.1,OCc1cc(C(O)CNCCCCCCOCCCCc2ccccc2)ccc1O (centres undefined) [Salmeterol xinafoate],108,110
> 45.8,20.6,CN(C)CCCN1c2ccccc2Sc2ccccc21 [Promazine hydrochloride],,46.3
29.1,23.1,CC(C(O)c1ccccc1)N(C)CCOC(c1ccccc1)c1ccccc1 (centres undefined) [Difeterol],83,85.3
